Data as given in article PMC4310350 (Drug Design, Development and Therapy, 2015).
“Also recorded” adds a separate entry of the source. One block for each molecule: values may come before it.

Assays:
OATP1B1 [1] = target: T1, OATP1B1 (Homo sapiens, UniProt Q9Y6L6); settings: 10 μM catalposide, HEK293-OATP1B1
T1 sequence (Q9Y6L6 1-691): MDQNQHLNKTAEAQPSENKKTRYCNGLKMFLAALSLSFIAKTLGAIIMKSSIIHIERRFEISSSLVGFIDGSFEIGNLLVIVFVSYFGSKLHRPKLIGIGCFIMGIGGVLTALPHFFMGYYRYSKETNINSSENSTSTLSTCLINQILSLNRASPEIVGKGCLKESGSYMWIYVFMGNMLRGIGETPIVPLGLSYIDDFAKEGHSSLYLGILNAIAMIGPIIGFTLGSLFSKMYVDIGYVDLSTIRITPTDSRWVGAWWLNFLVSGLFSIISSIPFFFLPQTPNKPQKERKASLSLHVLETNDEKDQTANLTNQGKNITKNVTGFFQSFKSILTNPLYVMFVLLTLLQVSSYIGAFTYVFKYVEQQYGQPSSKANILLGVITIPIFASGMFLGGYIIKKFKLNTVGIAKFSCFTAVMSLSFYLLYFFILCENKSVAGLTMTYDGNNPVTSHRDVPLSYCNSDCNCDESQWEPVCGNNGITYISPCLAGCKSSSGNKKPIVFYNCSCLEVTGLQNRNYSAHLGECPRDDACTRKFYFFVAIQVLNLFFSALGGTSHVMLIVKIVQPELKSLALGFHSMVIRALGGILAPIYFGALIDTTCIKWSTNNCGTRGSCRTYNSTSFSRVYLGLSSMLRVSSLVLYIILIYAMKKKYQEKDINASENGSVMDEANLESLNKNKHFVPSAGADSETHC

OATP1B3 [2] = target: T2, OATP1B3 (Homo sapiens, UniProt Q9NPD5); format: in vitro ADME; settings: 10 μM catalposide, HEK293-OATP1B3
T2 sequence (Q9NPD5 1-702): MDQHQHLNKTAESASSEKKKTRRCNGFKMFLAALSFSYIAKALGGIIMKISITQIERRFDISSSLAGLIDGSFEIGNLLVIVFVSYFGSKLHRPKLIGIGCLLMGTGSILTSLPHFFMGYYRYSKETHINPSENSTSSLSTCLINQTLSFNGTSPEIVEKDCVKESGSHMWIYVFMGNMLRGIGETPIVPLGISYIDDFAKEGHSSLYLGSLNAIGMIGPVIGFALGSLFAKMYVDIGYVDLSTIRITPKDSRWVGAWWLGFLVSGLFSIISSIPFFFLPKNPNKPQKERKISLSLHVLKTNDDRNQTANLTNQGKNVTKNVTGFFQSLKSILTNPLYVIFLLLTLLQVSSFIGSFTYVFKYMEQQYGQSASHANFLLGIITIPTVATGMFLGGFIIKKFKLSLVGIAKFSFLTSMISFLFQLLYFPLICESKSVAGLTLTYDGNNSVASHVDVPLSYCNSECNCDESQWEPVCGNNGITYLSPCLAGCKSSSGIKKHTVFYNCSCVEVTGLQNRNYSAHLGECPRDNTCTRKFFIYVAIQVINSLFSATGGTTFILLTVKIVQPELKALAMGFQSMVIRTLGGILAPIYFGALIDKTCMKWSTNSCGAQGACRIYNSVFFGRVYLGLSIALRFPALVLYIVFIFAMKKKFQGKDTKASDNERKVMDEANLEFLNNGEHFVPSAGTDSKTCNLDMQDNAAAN

P-gp = P-gp (Homo sapiens, UniProt P08183); assay: A-to-B and B-to-A transport in LLC-PK1 cells overexpressing P-gp; format: in vitro ADME; settings: pig, LLC-PK1, Net efflux ratio, probe substrate, LLC-PK1-MDR1 compared with LLC-PK1-mock cells
Sequence of P-gp (P08183 whole entry): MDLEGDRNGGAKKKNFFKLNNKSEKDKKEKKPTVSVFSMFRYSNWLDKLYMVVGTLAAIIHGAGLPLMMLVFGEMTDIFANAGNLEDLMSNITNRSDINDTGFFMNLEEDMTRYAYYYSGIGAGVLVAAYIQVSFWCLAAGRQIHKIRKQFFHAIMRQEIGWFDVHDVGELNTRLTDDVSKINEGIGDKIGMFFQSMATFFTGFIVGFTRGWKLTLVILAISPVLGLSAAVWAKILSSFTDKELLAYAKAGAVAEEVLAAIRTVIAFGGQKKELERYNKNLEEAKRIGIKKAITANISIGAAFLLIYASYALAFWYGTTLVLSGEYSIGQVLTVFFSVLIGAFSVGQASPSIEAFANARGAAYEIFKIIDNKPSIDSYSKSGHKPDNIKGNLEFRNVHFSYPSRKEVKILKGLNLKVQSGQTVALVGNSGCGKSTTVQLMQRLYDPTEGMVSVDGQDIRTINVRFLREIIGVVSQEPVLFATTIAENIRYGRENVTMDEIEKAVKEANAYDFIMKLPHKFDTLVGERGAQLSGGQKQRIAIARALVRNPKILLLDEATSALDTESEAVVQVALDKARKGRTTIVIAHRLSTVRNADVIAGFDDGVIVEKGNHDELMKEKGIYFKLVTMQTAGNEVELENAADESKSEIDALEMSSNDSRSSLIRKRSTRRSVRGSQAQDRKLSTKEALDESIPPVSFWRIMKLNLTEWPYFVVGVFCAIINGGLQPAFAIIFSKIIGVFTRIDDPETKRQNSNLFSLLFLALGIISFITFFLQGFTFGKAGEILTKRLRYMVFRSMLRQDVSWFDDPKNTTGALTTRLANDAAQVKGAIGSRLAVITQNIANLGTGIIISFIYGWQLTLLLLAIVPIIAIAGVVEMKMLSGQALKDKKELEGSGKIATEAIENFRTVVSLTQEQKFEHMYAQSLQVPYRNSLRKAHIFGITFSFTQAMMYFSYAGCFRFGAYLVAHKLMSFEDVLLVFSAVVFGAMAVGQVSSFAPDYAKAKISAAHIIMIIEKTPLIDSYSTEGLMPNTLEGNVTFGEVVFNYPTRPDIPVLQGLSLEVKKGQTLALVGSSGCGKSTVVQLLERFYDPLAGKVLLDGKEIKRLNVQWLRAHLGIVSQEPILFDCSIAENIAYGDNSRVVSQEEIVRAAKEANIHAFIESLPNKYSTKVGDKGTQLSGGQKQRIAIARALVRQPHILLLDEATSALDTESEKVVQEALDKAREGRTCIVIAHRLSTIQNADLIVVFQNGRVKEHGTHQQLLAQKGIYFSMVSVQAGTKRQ

OATP1B3 [3] = target: T2, OATP1B3; assay: Uptake in HEK293 cells overexpressing OATP1B3; format: in vitro ADME; settings: probe substrate, functionality check of OATP1B3
OATP1B3 [4] = target: T2, OATP1B3; settings: read-out: IC50 as inhibitor of OATP1B3; cited from earlier work
BCRP = target: T3, BCRP (Homo sapiens, UniProt Q9UNQ0); assay: A-to-B and B-to-A transport in LLC-PK1 cells overexpressing BCRP; format: in vitro ADME; settings: probe substrate, LLC-PK1-BCRP compared with LLC-PK1-mock cells
T3 sequence (Q9UNQ0 1-655): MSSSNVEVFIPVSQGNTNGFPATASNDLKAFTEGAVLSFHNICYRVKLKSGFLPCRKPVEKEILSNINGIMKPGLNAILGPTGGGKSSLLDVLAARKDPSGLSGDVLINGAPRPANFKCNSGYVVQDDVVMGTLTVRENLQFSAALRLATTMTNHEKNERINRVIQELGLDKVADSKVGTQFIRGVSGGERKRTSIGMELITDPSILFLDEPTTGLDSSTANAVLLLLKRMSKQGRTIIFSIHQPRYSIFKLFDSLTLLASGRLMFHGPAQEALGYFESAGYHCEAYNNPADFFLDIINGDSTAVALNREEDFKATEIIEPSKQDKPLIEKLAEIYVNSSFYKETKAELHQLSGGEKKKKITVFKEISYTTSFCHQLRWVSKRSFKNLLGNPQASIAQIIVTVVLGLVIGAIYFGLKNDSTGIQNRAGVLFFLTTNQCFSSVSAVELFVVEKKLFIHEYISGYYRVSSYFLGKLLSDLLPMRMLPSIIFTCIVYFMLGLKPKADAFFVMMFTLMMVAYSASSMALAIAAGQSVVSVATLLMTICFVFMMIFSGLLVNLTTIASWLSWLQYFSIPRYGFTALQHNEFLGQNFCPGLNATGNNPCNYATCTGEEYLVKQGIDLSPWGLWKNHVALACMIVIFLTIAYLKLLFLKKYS

OATP1B1 [5] = target: T1, OATP1B1; assay: Uptake in HEK293 cells overexpressing OATP1B1; format: in vitro ADME; settings: probe substrate, functionality check of OATP1B1
OAT3 = target: T4, OAT3 (Homo sapiens, UniProt Q8TCC7); assay: Uptake in HEK293 cells overexpressing OAT3; format: in vitro ADME; settings: probe substrate, functionality check of OAT3
T4 sequence (Q8TCC7 1-542): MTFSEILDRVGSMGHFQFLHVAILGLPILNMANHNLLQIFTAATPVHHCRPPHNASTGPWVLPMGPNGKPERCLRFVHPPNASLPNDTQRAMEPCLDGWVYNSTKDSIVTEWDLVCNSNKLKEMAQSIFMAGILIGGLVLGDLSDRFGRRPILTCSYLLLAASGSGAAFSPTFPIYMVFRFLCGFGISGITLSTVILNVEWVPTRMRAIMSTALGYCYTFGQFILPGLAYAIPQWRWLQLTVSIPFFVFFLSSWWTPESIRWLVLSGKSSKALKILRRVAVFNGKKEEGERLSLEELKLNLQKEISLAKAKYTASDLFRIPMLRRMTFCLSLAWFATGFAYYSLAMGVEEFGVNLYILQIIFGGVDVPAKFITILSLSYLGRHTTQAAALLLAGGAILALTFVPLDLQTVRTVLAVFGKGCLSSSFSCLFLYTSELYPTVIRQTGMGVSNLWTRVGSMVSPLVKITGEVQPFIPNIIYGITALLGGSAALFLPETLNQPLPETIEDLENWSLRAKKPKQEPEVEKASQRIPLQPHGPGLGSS

OCT1 = target: T5, OCT1 (Homo sapiens, UniProt O15245); assay: Uptake in HEK293 cells overexpressing OCT1; format: in vitro ADME; settings: probe substrate, functionality check of OCT1
T5 sequence (O15245 1-554): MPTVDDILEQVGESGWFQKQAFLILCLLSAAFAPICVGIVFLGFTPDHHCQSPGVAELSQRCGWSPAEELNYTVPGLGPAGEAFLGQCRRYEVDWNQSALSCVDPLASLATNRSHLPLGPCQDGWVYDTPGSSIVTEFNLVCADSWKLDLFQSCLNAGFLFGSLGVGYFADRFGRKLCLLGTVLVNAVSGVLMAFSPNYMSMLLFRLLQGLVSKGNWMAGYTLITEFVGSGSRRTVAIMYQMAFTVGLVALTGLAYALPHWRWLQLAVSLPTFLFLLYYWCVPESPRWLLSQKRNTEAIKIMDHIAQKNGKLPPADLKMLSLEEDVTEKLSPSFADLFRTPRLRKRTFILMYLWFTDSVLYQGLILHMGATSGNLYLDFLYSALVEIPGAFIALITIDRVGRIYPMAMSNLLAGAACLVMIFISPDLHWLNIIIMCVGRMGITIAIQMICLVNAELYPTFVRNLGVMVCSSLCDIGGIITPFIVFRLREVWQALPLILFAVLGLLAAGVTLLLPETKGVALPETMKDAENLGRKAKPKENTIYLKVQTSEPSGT

OCT2 = target: T6, OCT2 (Homo sapiens, UniProt O15244); assay: Uptake in HEK293 cells overexpressing OCT2; format: in vitro ADME; settings: probe substrate, functionality check of OCT2
T6 sequence (O15244 1-555): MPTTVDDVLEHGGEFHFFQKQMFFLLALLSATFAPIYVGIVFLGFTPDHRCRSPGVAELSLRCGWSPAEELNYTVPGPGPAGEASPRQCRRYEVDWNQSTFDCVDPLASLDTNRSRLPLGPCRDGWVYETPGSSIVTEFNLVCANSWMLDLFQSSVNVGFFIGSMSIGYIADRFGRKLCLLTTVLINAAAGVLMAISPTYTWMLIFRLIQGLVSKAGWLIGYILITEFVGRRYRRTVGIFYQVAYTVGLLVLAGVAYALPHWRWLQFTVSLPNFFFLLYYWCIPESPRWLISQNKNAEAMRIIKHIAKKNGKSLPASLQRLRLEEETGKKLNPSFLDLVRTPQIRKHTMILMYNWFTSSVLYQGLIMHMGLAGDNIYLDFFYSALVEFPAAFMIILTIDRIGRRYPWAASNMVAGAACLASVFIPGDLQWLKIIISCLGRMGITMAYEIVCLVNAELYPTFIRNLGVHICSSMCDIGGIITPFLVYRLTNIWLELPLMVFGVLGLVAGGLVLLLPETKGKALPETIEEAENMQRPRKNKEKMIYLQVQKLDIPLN

[6] = substrate: O=C(O[C@H]1[C@@H]2C=CO[C@@H](O[C@@H]3O[C@H](CO)[C@@H](O)[C@H](O)[C@H]3O)[C@@H]2[C@@]2(CO)O[C@@H]12)c1ccc(O)cc1; assay: Uptake in HEK293 cells overexpressing OATP1B1; format: in vitro ADME; settings: other: OATP1B1-mediated uptake, 2–500 μM catalposide, 5 minutes; 37.0 °C

Molecule: CO[C@H]1/C=C/O[C@@]2(C)Oc3c(C)c(O)c4c(O)c(c(/C=N/N5CCN(C)CC5)c(O)c4c3C2=O)NC(=O)/C(C)=C\C=C\[C@H](C)[C@H](O)[C@@H](C)[C@@H](O)[C@@H](C)[C@H](OC(C)=O)[C@@H]1C [rifampin]
- Effect on OATP1B1-mediated catalposide uptake (OATP1B1 [1]): decreased to basal levels; also recorded: inhibitory effects
- Effect on OATP1B3-mediated catalposide uptake (OATP1B3 [2]): decreased to basal levels; also recorded: inhibitory effects

- efflux ratio at 1 h (P-gp): 5.7
Molecule: C[C@H]1O[C@@H](O[C@H]2[C@@H](O)C[C@H](O[C@H]3[C@@H](O)C[C@H](O[C@H]4CC[C@@]5(C)[C@H](CC[C@@H]6[C@@H]5C[C@@H](O)[C@]5(C)[C@@H](C7=CC(=O)OC7)CC[C@]65O)C4)O[C@@H]3C)O[C@@H]2C)C[C@H](O)[C@@H]1O [digoxin]

- Fold increase in uptake vs HEK293 mock cells (OATP1B3 [3]): 15.0 fold
Molecule: C[C@]12CC[C@@H]3c4ccc(O)cc4CC[C@H]3[C@@H]1CC[C@@H]2O[C@@H]1O[C@H](C(=O)O)[C@@H](O)[C@H](O)[C@H]1O [EG, estradiol-17β-D-glucuronide]

Molecule: Cc1ccc(C)c(OCCCC(C)(C)C(=O)O)c1 [gemfibrozil]
- Effect on OATP1B1-mediated catalposide uptake (OATP1B1 [1]): decreased to basal levels; also recorded: inhibitory effects
- Effect on OATP1B3-mediated catalposide uptake (OATP1B3 [2]): decreased to basal levels; also recorded: inhibitory effects
- IC50 (OATP1B3 [4]): ~200 µM

- Net efflux ratio (BCRP): 4.6
- Fold increase in uptake vs HEK293 mock cells (OATP1B1 [5]): 17.3 fold
- Fold increase in uptake vs HEK293 mock cells (OAT3): 18.9 fold
Molecule: C[C@]12CC[C@@H]3c4ccc(OS(=O)(=O)O)cc4CC[C@H]3[C@@H]1CCC2=O [ES, estrone-3-sulfate]

Molecule: C[n+]1ccc(-c2ccccc2)cc1 [MPP^+, methyl-4-phenylpyridinium]
- Fold increase in uptake vs HEK293 mock cells (OCT1): 13.2 fold
- Fold increase in uptake vs HEK293 mock cells (OCT2): 17.8 fold

B1: OATP1B1 (Homo sapiens) (protein)
chain: MDQNQHLNKTAEAQPSENKKTRYCNGLKMFLAALSLSFIAKTLGAIIMKSSIIHIERRFEISSSLVGFIDGSFEIGNLLVIVFVSYFGSKLHRPKLIGIGCFIMGIGGVLTALPHFFMGYYRYSKETNINSSENSTSTLSTCLINQILSLNRASPEIVGKGCLKESGSYMWIYVFMGNMLRGIGETPIVPLGLSYIDDFAKEGHSSLYLGILNAIAMIGPIIGFTLGSLFSKMYVDIGYVDLSTIRITPTDSRWVGAWWLNFLVSGLFSIISSIPFFFLPQTPNKPQKERKASLSLHVLETNDEKDQTANLTNQGKNITKNVTGFFQSFKSILTNPLYVMFVLLTLLQVSSYIGAFTYVFKYVEQQYGQPSSKANILLGVITIPIFASGMFLGGYIIKKFKLNTVGIAKFSCFTAVMSLSFYLLYFFILCENKSVAGLTMTYDGNNPVTSHRDVPLSYCNSDCNCDESQWEPVCGNNGITYISPCLAGCKSSSGNKKPIVFYNCSCLEVTGLQNRNYSAHLGECPRDDACTRKFYFFVAIQVLNLFFSALGGTSHVMLIVKIVQPELKSLALGFHSMVIRALGGILAPIYFGALIDTTCIKWSTNNCGTRGSCRTYNSTSFSRVYLGLSSMLRVSSLVLYIILIYAMKKKYQEKDINASENGSVMDEANLESLNKNKHFVPSAGADSETHC
- Km [6]: 220.5 µM
- Vmax [6]: 7.7 pmol/min
